Where a SMILES comes first, the peptide text is derived from it. The star is where a group is joined. Cbz = O=C(OCc1ccccc1)*
Columns and labels:
mutant P23H opsin = assay: Recovery of correctly folded P23H rhodopsin from tetracycline-inducible HEK293 cells (immunoaffinity purification, absorbance at 500 nm); format: cell-based; conditions: for recovery of folded rhodopsins: in the presence of 11-cis-retinal, statement covers the rhodopsins of Table 1 (P23H and WT)
Description: (§1) Mutant P23H and wild-type opsins were expressed separately in tetracycline-inducible stable HEK293 cell lines in the presence of 11-cis retinal and various inhibitors. At forty-eight hours, the folded proteins were immununoaffinity purified and quantitated by UV-visible spectroscopy. The total amount of opsin protein was assayed at 280 nm. The amount of rhodopsin present in a biochemically functional conformation was assayed at 500 nm. Immunofluorescence microscopy was also performed to determine the cellular location of the proteins.
(§2) Stable wild-type and P23H opsin expressing HEK293 cell lines were generated in the Flp-In T-Rex system (Invitrogen). The BEK293 cells were grown in DMEM high glucose media supplemented with 10% fetal bovine serum, antibiotic-antimycotic solution, 5 μg/ml blasticidin and hygromycin at 37° C. in the presence of 8% CO2.
(§3) The opsin expressing HEK293 cell lines were allowed to reach confluence and were induced with 1 μg/ml tetracycline after a change of media. 10 μM 11-cis retinal was immediately added after induction under a red light, and inhibitors were added concurrently at the concentrations shown in Table 2 (below).
The plates were incubated for forty-eight hours. 10 uM of retinal was provided twenty-four hours after the first application, under red light.
Forty-eight hours after induction and inhibitor administration the HEK293 cells were harvested and rhodopsin was purified essentially as described in Noorwez et. al. (J Biol. Chem. 2004 Apr. 16; 279(16):16278-84). Spectrophotometric scans were taken in a Varian Cary 50 spectrophotometer.

P23H opsin = conditions: previous studies, Noorwez et al. J Biol Chem 2003; cited from earlier work
wild-type opsin = assay: Recovery of wild-type rhodopsin from tetracycline-inducible HEK293 cells (immunoaffinity purification, absorbance at 500 nm); format: cell-based; conditions: 11-cis-retinal alone added to media of cells expressing wild-type opsin
Description: as §1, §2, §3
The plates were incubated for forty-eight hours. 10 uM of retinal was provided twenty-four hours after the first application, under red light. […]

Cl.N [Ammonium chloride]
recovery of folded rhodopsins (mutant P23H opsin): increased the recovery

Cn1cnc(N)c2ncnc1-2 [3-methyladenine]
recovery of folded rhodopsins (mutant P23H opsin): increased the recovery

CC(C)C[C@@H](C=O)NC(=O)[C@H](CC(C)C)NC(=O)[C@H](CC(C)C)NC(=O)OCc1ccccc1 [MG132, N-carbobenzoyl-Leu-Leu-Leu-CHO] (Cbz-Leu-Leu-Leu-aldehyde)
recovery of folded rhodopsins (mutant P23H opsin): increased the recovery

C[C@H]1CCC/C=C/[C@@H]2C[C@H](O)C[C@H]2[C@H](O)/C=C/C(=O)O1 [Brefeldin A]
increase in the yield of P23H rhodopsin (mutant P23H opsin; HEK293 cells, inhibitor added at induction with 11-cis-retinal, FIG. 4A): 2 fold | recovery of folded rhodopsins (mutant P23H opsin): increased the recovery

CC1=C(/C=C/C(C)=C/C=C/C(C)=C/C=O)C(C)(C)CCC1 [11-cis-retinal]
in vivo folding and stabilization of P23H opsin (P23H opsin): promotes the in vivo folding and stabilization | increase in rhodopsin yield (mutant P23H opsin; 11-cis-retinal alone added to culture medium of cells expressing the P23H mutant): 5-6 fold | effect on rhodopsin yield (wild-type opsin): no effect

7-ring locked isomer of 11-cis-retinal
in vivo folding and stabilization of P23H opsin (P23H opsin): promotes the in vivo folding and stabilization

CC1=C(/C=C/C(C)=C\C=C\C(C)=C\C=O)C(C)(C)CCC1 [9-cis-1-retinal]
in vivo folding and stabilization of P23H opsin (P23H opsin): promotes the in vivo folding and stabilization

O[C@H]1[C@H](O)[C@@H](O)CN2CC[C@H](O)[C@H]12 [Castanospermine]
recovery of folded rhodopsins (mutant P23H opsin): increased the recovery
